Source: patent US7071182B2, “Antagonists of melanin concentrating hormone effects on the melanin concentrating hormone receptor” (Abbott Laboratories, priority 2003, dated 2006)

Assay: Pharmacokinetic drug levels in whole brain after 10 mpk oral dose in DIO mice
Type: in vivo
Conditions: harvested 0.5-24 h after the dose

Compound: O=C(Nc1ccc(Oc2ccccc2)cc1)Nc1ccc2c(cnn2CCN2CCCC2)c1 [Example 24, N-(4-phenoxyphenyl)-N′-[1-(2-pyrrolidin-1-ylethyl)-1H-indazol-5-yl]urea]
- Brain Conc. AUC: 1428 ng·h/g
